Blank lines part the entries; values can stand above or below the compound they belong to.
Assays:
Plasma [1] = experiment: Anticoagulant activity in mouse plasma assessed inhibition of thrombin-induced platelet aggregation; format: functional, cell-free
Plasma [2] = experiment: Antiplatelet activity in plasma (unknown origin) assessed as reduction of thrombin-induced platelet aggregation by aggregometer; format: functional, cell-free; conditions: Homo sapiens
Plasma [3] = experiment: Antiplatelet activity in plasma (unknown origin) assessed as reduction of ADP-induced platelet aggregation by aggregometer; format: functional, cell-free; conditions: Homo sapiens
Platelet = experiment: Potency index, ratio of IC50 for MCI-154 to IC50 for test compound against antiplatelet activity in human platelet; format: functional
[4] = Antiplatelet activity in human platelet; format: functional, cell-based
Coagulation factor X [5] = target: Coagulation factor X (Mus musculus, UniProt O88947); experiment: Inhibition of mouse FXa
Plasma [6] = experiment: Antiplatelet aggregation activity in rabbit plasma incubated for 5 mins; format: functional, cell-free; conditions: Oryctolagus cuniculus
Coagulation factor X [7] = target: Coagulation factor X (Homo sapiens, UniProt P00742); experiment: Binding affinity to FXa (unknown origin)
Plasma [8] = experiment: Antithrombotic activity in rat plasma; format: functional
Rattus norvegicus [9] = organism: Rattus norvegicus; experiment: Antiplatelet aggregration activity in arteriovenous bypass thrombosis rat model assessed as aggregation inhibition rate relative to control; format: functional
Prothrombin = Prothrombin (Homo sapiens, UniProt P00734); experiment: Inhibition of thrombin in human plasma; format: cell-free
Plasma [10] = experiment: Antithrombotic activity in human plasma assessed as thrombin time; format: functional
Plasma [11] = experiment: Anticoagulant activity in rabbit plasma assessed as prothrombin time; format: functional, Oryctolagus cuniculus
[12] = Antithrombotic activity in fresh platelet rich plasma; format: functional, cell-based
[13] = Antiplatelet activity in platelet (unknown origin) assessed as inhibition of ADP-induced platelet aggregation relative to control; format: functional, cell-based
[14] = Antiplatelet aggregation activity in rabbit platelet assessed as reduction in ADP-induced platelet aggregation; format: functional, cell-based; conditions: Oryctolagus cuniculus
Plasma (Mus musculus) = experiment: Anticoagulant activity in mouse plasma assessed as prothrombin time
P2Y purinoceptor 1 = P2Y purinoceptor 1 (Homo sapiens, UniProt P47900); experiment: Antagonist activity at P2Y1 receptor (unknown origin); format: functional
Plasma [15] = experiment: Antithrombotic activity in mouse plasma assessed as prothrombin time administered IV
Plasma [16] = experiment: Antithrombotic activity in mouse plasma assessed as clotting time administered IV
Rattus norvegicus [17] = organism: Rattus norvegicus; experiment: Antithrombotic activity in arteriovenous bypass thrombo-genesis rat model assessed as quality of thrombosis; format: functional

Sequence of Coagulation factor X (Mus musculus, UniProt O88947) (O88947 41-180 limits assumed): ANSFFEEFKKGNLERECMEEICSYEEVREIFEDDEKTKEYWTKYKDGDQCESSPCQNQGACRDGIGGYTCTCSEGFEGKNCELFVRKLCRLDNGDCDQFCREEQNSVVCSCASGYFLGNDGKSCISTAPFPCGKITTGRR
Sequence of Coagulation factor X (Mus musculus, UniProt O88947) (O88947 232-481 limits assumed): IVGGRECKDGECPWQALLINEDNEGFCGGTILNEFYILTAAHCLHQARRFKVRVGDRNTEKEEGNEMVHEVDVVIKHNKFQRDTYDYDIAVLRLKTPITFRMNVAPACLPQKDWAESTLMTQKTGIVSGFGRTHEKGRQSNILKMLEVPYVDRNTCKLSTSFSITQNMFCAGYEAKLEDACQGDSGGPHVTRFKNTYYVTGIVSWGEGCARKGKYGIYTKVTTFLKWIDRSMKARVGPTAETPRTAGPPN
Sequence of P2Y purinoceptor 1 (P47900 whole entry): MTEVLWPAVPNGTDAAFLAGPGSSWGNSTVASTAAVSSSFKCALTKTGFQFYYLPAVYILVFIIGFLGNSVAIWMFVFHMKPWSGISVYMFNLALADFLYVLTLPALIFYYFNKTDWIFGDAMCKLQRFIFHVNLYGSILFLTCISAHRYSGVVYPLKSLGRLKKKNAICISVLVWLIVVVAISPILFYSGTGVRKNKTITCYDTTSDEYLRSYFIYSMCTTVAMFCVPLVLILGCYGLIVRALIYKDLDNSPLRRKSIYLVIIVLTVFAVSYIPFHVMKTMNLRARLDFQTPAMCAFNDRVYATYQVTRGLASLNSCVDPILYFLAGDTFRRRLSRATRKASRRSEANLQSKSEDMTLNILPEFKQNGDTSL
Sequence of Coagulation factor X (Homo sapiens, UniProt P00742) (P00742 41-179 limits assumed): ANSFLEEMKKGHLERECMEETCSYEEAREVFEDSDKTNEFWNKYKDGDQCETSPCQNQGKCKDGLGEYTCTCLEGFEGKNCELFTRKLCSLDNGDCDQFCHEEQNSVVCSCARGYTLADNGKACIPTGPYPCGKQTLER
Sequence of Coagulation factor X (Homo sapiens, UniProt P00742) (P00742 235-488 limits assumed): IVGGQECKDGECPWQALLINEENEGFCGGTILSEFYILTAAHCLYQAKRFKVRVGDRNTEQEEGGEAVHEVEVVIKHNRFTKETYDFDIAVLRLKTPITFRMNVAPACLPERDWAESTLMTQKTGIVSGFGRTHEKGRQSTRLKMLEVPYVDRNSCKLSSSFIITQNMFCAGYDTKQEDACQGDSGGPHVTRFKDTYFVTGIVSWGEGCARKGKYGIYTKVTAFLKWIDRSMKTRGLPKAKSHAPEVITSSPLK

Structure (SMILES): O=C(O)C(Cc1ccc2c(c1)OCC(COCC1CCNCC1)O2)NS(=O)(=O)c1ccccc1 (stereo not drawn)
IC50 (Plasma [2]): 22.2 µM
IC50 (Plasma [3]): 41.7 µM

Structure (SMILES): CC(=N)N1CCC(Oc2ccc3c(c2)C(=O)NS(=O)(=O)N3Cc2ccc3ccc(C(=N)N)cc3c2)CC1
IC50 (Coagulation factor X [5]): 0.0021 µM

Structure (SMILES): CCN1C(=O)COc2cc(NC(=O)c3ccccc3)ccc21
IC50 (Plasma [6]): 8.99 µM

Structure (SMILES): N#Cc1ccc(SC2SC[C@H](O)[C@@H](O)[C@H]2O)cc1 (stereo partly drawn)
ED50 (Plasma [8]): 15 mg/kg

Structure (SMILES): CC(=O)Oc1ccccc1C(=O)Oc1ccc(/C=C/C(=O)OCCCCO[N+](=O)[O-])cc1
inhibition (INH) (Rattus norvegicus [9]): 43.9%

Structure (SMILES): CC1(C)[C@@H](OC(=O)c2ccccc2C(=O)O)CC[C@]2(C)[C@H]3C(=O)C=C4[C@@H]5C[C@@](C)(C(=O)O)CC[C@]5(C)CC[C@@]4(C)[C@]3(C)CC[C@@H]12
IC50 (Prothrombin): 114 µM
Time (Plasma [10]): 118.3 s

Structure (SMILES): COc1cc(C(=O)Nc2cc(C(N)=O)ccc2NC(=O)c2ccc(-n3ccccc3=O)cc2)ccc1O
Time (Plasma [11]): 8.8 s

Structure (SMILES): COc1cc(/C=C/C(=O)OCc2c(-c3ccccc3)no[n+]2[O-])ccc1OC(=O)c1ccccc1OC(C)=O
inhibition (INH) (Rattus norvegicus [9]): 12.1%

Structure (SMILES): O=C(CC1CCCCCCCCCNC(=O)OCOC(=O)C(Cc2ccccc2)NC1=O)OCc1ccccc1 (stereo not drawn)
IC50 [12]: 0.2 µM

Structure (SMILES): CC(=O)Oc1ccccc1C(=O)Nc1n[n+](-c2ccc(C)cc2)no1
inhibition (INH) [13]: 30.7%

Structure (SMILES): CC(C)[C@](O)(C(=O)OCC1=CCN2CC[C@@H](O)[C@@H]12)[C@H](C)O
IC50 [14]: 12.5 µM
IC50 ([13]; platelet): 0.49 µM

Structure (SMILES): CC(=N)N1CCC(Oc2ccc3c(c2)C(=O)NS(=O)(=O)N3C/C=C/c2cccc(C(=N)N)c2)CC1
IC50 (Coagulation factor X [5]): 0.0028 µM

Structure (SMILES): O=C(OCCOc1ccc2ccc(=O)oc2c1)c1ccccc1OCCOc1ccc2ccc(=O)oc2c1
Time (Plasma (Mus musculus)): 10.88 s

Structure (SMILES): CCOC(=O)CCN(C(=O)c1ccc2c(c1)nc1n2CCN(CC(=O)OC(C)(C)C)C1Cc1ccc(/C(N)=N/CC(=O)OC(C)(C)C)cc1)c1ccccc1 (stereo not drawn)
IC50 (Plasma [1]): 0.11 µM

Structure (SMILES): COc1cc(/C=C/C(=O)OC2COC3C(O[N+](=O)[O-])COC23)ccc1OC(=O)c1ccccc1OC(C)=O (stereo not drawn)
inhibition (INH) (Rattus norvegicus [9]): 28.7%

Structure (SMILES): CC(=O)Nc1ccc(C(=O)Nc2cc(C(N)=O)ccc2NC(=O)c2ccc(-n3ccccc3=O)cc2)cc1Cl
Time (Plasma [11]): 10.2 s

Structure (SMILES): CC(=O)CC(c1ccccc1)c1c(O)c2ccccc2oc1=O (stereo not drawn) [WARFARIN]
Time (Plasma (Mus musculus)): 7.97 s
Time (Plasma [15]): 42.3 s
Time (Plasma [16]): 23.2 s

Structure (SMILES): CC(=O)Oc1ccccc1C(=O)O [ASPIRIN]
inhibition (INH) (Rattus norvegicus [9]): 14.7%
Activity (Rattus norvegicus [17]): 10.5 mg

Structure (SMILES): O=C(O)/C=C/c1ccc(Cn2ccnc2)cc1 [OZAGREL]
IC50 [14]: 2850 µM

Structure (SMILES): COc1ccc(-n2nc(C(N)=O)c3c2C(=O)N(c2ccc(N4CCCCC4=O)cc2)CC3)cc1 [APIXABAN]
Time (Plasma [11]): 10 s

The next lines start with results.

IC50 (Plasma [1]): 0.6 µM
Structure (SMILES): Cn1c(CNc2ccc(C(=N)N)cc2)nc2cc(C(=O)N(CCC(=O)O)c3ccccn3)ccc21 [DABIGATRAN]

IC50 [4]: 0.03 µM
Structure (SMILES): CCCN(CCC)CC(=O)Nc1ccc(C2=NNC(=O)CC2)cc1
Ratio IC50 (Platelet): 10

IC50 [4]: 0.06 µM
Structure (SMILES): CC1CC(=O)NN=C1c1ccc(NC(=O)Cn2ccnc2)cc1 (stereo not drawn)

IC50 (Plasma [6]): 8.94 µM
Structure (SMILES): CCN1C(=O)COc2cc(NC(=O)CCCl)ccc21

Ki (Coagulation factor X [7]): 1 µM
Structure (SMILES): COc1ccc(C(=O)Nc2ccccc2NC(=O)c2ccc(OC)cc2)cc1

IC50 (Coagulation factor X [5]): 0.006 µM
Structure (SMILES): CC(=N)N1CCC(Oc2ccc(N(Cc3ccc4ccc(C(=N)N)cc4c3)S(=O)(=O)CC(=O)O)cc2)CC1 [YM-60828]

IC50 (P2Y purinoceptor 1): 1.09 µM
Structure (SMILES): CNc1ncnc2c1ncn2CC(COP(=O)(O)O)COP(=O)(O)O

IC50 [14]: 1760 µM
Structure (SMILES): COc1cc(/C=C/C(=O)O)ccc1OCc1cccnc1

IC50 [14]: 19600 µM
Structure (SMILES): COc1cc(/C=C/C(=O)O)ccc1O [FERULATE]

IC50 (P2Y purinoceptor 1): 1.6 µM
Structure (SMILES): CNc1ncnc2c1ncn2CCC(COP(=O)(O)O)COP(=O)(O)O

IC50 [4]: 0.085 µM
Structure (SMILES): CCCN(CCC)CC(=O)Nc1ccc(C2=NNC(=O)CC2C)cc1 (stereo not drawn)
